The values that follow are results of earlier work, collected in patent publication US20100323998A1, “TOPICAL COMPOSITION CONTAINING THE COMBINATION OF MUPIROCIN AND BECLOMETHASONE” (Glenmark Pharmaceuticals Ltd., priority 2007, published 2010).

This series concerns Gram-positive and Gram-negative bacteria. The settings on record: in vitro.

Consider `C/C(=C\C(=O)OCCCCCCCCC(=O)O)C[C@@H]1OCC(C[C@@H]2O[C@H]2[C@@H](C)[C@H](C)O)[C@@H](O)[C@H]1O` (stereo partly drawn) [Mupirocin, (E)-(2S,3R,4R,5S)-5-[(2S,3S,4S,5S)-2,3-Epoxy-5-hydroxy-4-methylhexyl]tetrahydro-3,4-dihydroxy-β-methyl-2H-pyran-2-crotonic acid, ester with 9-hydroxynonanoic acid], for which the “Growth of Gram-positive and Gram-negative bacteria” value was “inhibits the growth”.
